Experimental data taken from the supplement of paper PMC11061612.

Assays:
Olaparib = compound: O=C(c1cc(Cc2n[nH]c(=O)c3ccccc23)ccc1F)N1CCN(C(=O)C2CC2)CC1 [Olaparib]; settings: max 10 µM
How it was run: (§1)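 Cancer cell lines were dosed for 72 hours (final DMSO typically 0.2%) after 24 hours at 37°C and 5% CO2 in 1536-well plates containing 7.5 μl DMEM/F12 or RPMI with 10% FBS. Viability came from CellTiter-Glo 2.0 luminescence, scaled between blank-well and DMSO-well means, and dose responses were fitted to a two-parameter logistic curve with a non-linear mixed effects model. The single-agent IC50 was obtained from this fit.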

Crizotinib = compound: C[C@@H](Oc1cc(-c2cnn(C3CCNCC3)c2)cnc1N)c1c(Cl)ccc(F)c1Cl [Crizotinib]; settings: max 10 µM
How it was run: as §1

Prexasertib = compound: COc1cccc(OCCCN)c1-c1cc(Nc2cnc(C#N)cn2)n[nH]1 [Prexasertib]; settings: max 1 µM
How it was run: as §1

Doxorubicin = compound: COc1cccc2c1C(=O)c1c(O)c3c(c(O)c1C2=O)C[C@@](O)(C(=O)CO)C[C@@H]3O[C@H]1C[C@H](N)[C@H](O)[C@H](C)O1 [Doxorubicin]; settings: max 1 µM
How it was run: as §1

Alisertib = compound: COc1cc(Nc2ncc3c(n2)-c2ccc(Cl)cc2C(c2c(F)cccc2OC)=NC3)ccc1C(=O)O [Alisertib]; settings: max 10 µM
How it was run: as §1

SN-38 = compound: CCc1c2c(nc3ccc(O)cc13)-c1cc3c(c(=O)n1C2)COC(=O)[C@]3(O)CC [SN-38]; settings: max 0.3 µM
How it was run: as §1

Trametinib = compound: CC(=O)Nc1cccc(-n2c(=O)n(C3CC3)c(=O)c3c(Nc4ccc(I)cc4F)n(C)c(=O)c(C)c32)c1 [Trametinib]; settings: max 1 µM
How it was run: as §1

AZD8186 = compound: C[C@@H](Nc1cc(F)cc(F)c1)c1cc(C(=O)N(C)C)cc2c(=O)cc(N3CCOCC3)oc12 [AZD8186]; settings: max 10 µM
How it was run: as §1

AZD1775 = compound: C=CCn1c(=O)c2cnc(Nc3ccc(N4CCN(C)CC4)cc3)nc2n1-c1cccc(C(C)(C)O)n1 [AZD1775]; settings: max 3 µM
How it was run: as §1

AZD5153 = compound: COc1nnc2ccc(N3CCC(c4ccc(OCCN5CCN(C)C(=O)[C@H]5C)cc4)CC3)nn12 [AZD5153]; settings: max 1 µM
How it was run: as §1

SRA737 = compound: N#Cc1cnc(Nc2cc(NC[C@H]3CNCCO3)c(C(F)(F)F)cn2)cn1 [SRA737]; settings: max 10 µM
How it was run: as §1

Selumetinib = compound: Cn1cnc2c(F)c(Nc3ccc(Br)cc3Cl)c(C(=O)NOCCO)cc21 [Selumetinib]; settings: max 10 µM
How it was run: as §1

MK-2206 = compound: NC1(c2ccc(-c3nc4ccn5c(=O)[nH]nc5c4cc3-c3ccccc3)cc2)CCC1 [MK-2206]; settings: max 10 µM
How it was run: as §1

Taselisib = compound: Cc1nc(-c2cn3c(n2)-c2ccc(-c4cnn(C(C)(C)C(N)=O)c4)cc2OCC3)n(C(C)C)n1 [Taselisib]; settings: max 10 µM
How it was run: as §1

Lapatinib = compound: CS(=O)(=O)CCNCc1ccc(-c2ccc3ncnc(Nc4ccc(OCc5cccc(F)c5)c(Cl)c4)c3c2)o1 [Lapatinib]; settings: max 10 µM
How it was run: as §1

Gefitinib = compound: COc1cc2ncnc(Nc3ccc(F)c(Cl)c3)c2cc1OCCCN1CCOCC1 [Gefitinib]; settings: max 10 µM
How it was run: as §1

Savolitinib = compound: C[C@@H](c1ccc2nccn2c1)n1nnc2ncc(-c3cnn(C)c3)nc21 [Savolitinib]; settings: max 1 µM
How it was run: as §1

Dasatinib = compound: CC1=C(C(=CC=C1)Cl)NC(=O)C2=CN=C(S2)NC3=CC(=NC(=N3)C)N4CCN(CC4)CCO [Dasatinib]; settings: max 2 µM
How it was run: as §1

SG3199 = compound: CC1=CN2[C@@H](C1)C=NC3=CC(=C(C=C3C2=O)OC)OCCCCCOC4=C(C=C5C(=C4)N=C[C@@H]6CC(=CN6C5=O)C)OC [SG3199]; settings: max 0.001 µM
How it was run: as §1

AZD5363 = compound: C1CN(CCC1(C(=O)N[C@@H](CCO)C2=CC=C(C=C2)Cl)N)C3=NC=NC4=C3C=CN4 [AZD5363]; settings: max 10 µM
How it was run: as §1

AZD6738 = compound: C[C@@H]1COCCN1C2=NC(=NC(=C2)C3(CC3)[S@](=N)(=O)C)C4=C5C=CNC5=NC=C4 [AZD6738]; settings: max 10 µM
How it was run: as §1

AZD4320 = compound: CN(CC[C@H](CSC1=CC=CC=C1)NC2=C(C=C(C=C2)S(=O)(=O)NC(=O)C3=CC=C(C=C3)N4CCC(CC4)[C@H](C5=CC=CC=C5C6=CC=C(C=C6)Cl)O)S(=O)(=O)C(F)(F)F)CCO [AZD4320]; settings: max 1 µM
How it was run: as §1

[1] = compound: O=C(Nc1ccc2[nH]nc(-c3ccncc3)c2c1)[C@@H]1CCN(CC(=O)N2CCN(c3ccc(-c4ncccn4)cc3)CC2)C1; settings: max 5 µM
How it was run: as §1

Etoposide = compound: COc1cc([C@@H]2c3cc4c(cc3[C@@H](O[C@@H]3O[C@@H]5CO[C@@H](C)O[C@H]5[C@H](O)[C@H]3O)[C@H]3COC(=O)[C@H]23)OCO4)cc(OC)c1O [Etoposide]; settings: max 10 µM
How it was run: as §1

Venetoclax = compound: CC1(C)CCC(CN2CCN(c3ccc(C(=O)NS(=O)(=O)c4ccc(NCC5CCOCC5)c([N+](=O)[O-])c4)c(Oc4cnc5[nH]ccc5c4)c3)CC2)=C(c2ccc(Cl)cc2)C1 [Venetoclax]; settings: max 1 µM
How it was run: as §1

AZD1390 = compound: CC(C)n1c(=O)n(C)c2cnc3cc(F)c(-c4ccc(OCCCN5CCCCC5)nc4)cc3c21 [AZD1390]; settings: max 0.3 µM
How it was run: as §1

Gemcitabine = compound: Nc1ccn([C@@H]2O[C@H](CO)[C@@H](O)C2(F)F)c(=O)n1 [Gemcitabine]; settings: max 0.3 µM
How it was run: as §1

AZD0156 = compound: CN(C)CCCOc1ccc(-c2ccc3ncc4c(c3c2)n(C2CCOCC2)c(=O)n4C)cn1 [AZD0156]; settings: max 3 µM
How it was run: as §1

AZD5991 = compound: Cc1c2c(nn1C)CSCc1cc(n(C)n1)CSc1cc(c3ccccc3c1)OCCCc1c(C(=O)O)n(C)c3c-2c(Cl)ccc13 [AZD5991]; settings: max 1 µM
How it was run: as §1

Paclitaxel = compound: CC(=O)O[C@H]1C(=O)[C@@]2(C)[C@H]([C@H](OC(=O)c3ccccc3)[C@]3(O)C[C@H](OC(=O)[C@H](O)[C@@H](NC(=O)c4ccccc4)c4ccccc4)C(C)=C1C3(C)C)[C@]1(OC(C)=O)CO[C@@H]1C[C@@H]2O [Paclitaxel]; settings: max 3 µM
How it was run: as §1

AZD2811 = compound: CCN(CCO)CCCOc1ccc2c(Nc3cc(CC(=O)Nc4cccc(F)c4)[nH]n3)ncnc2c1 [AZD2811]; settings: max 1 µM
How it was run: as §1

AZD7648 = compound: Cc1cc2ncnn2cc1Nc1ncc2c(n1)n(C1CCOCC1)c(=O)n2C [AZD7648]; settings: max 10 µM
How it was run: as §1

5-Fluorouracil = compound: O=c1[nH]cc(F)c(=O)[nH]1 [5-Fluorouracil]; settings: max 20 µM
How it was run: as §1

Palbociclib = compound: CC(=O)c1c(C)c2cnc(Nc3ccc(N4CCNCC4)cn3)nc2n(C2CCCC2)c1=O [Palbociclib]; settings: max 10 µM
How it was run: as §1

Carboplatin = compound: C1CC(C1)(C(=O)[O-])C(=O)[O-].N.N.[Pt+2] [Carboplatin]; settings: max 10 µM
How it was run: as §1

| Cell Line | IC50, cell viability 72 h (Olaparib) [nM] | IC50, cell viability 72 h (Crizotinib) [nM] | IC50, cell viability 72 h (Prexasertib) [nM] | IC50, cell viability 72 h (Doxorubicin) [nM] | IC50, cell viability 72 h (Alisertib) [nM] | IC50, cell viability 72 h (SN-38) [nM] | IC50, cell viability 72 h (Trametinib) [nM] | IC50, cell viability 72 h (AZD8186) [nM] | IC50, cell viability 72 h (AZD1775) [nM] | IC50, cell viability 72 h (AZD5153) [nM] | IC50, cell viability 72 h (SRA737) [nM] | IC50, cell viability 72 h (Selumetinib) [nM] | IC50, cell viability 72 h (MK-2206) [nM] | IC50, cell viability 72 h (Taselisib) [nM] | IC50, cell viability 72 h (Lapatinib) [nM] | IC50, cell viability 72 h (Gefitinib) [nM] | IC50, cell viability 72 h (Savolitinib) [nM] | IC50, cell viability 72 h (Dasatinib) [nM] | IC50, cell viability 72 h (SG3199) [nM] | IC50, cell viability 72 h (AZD5363) [nM] | IC50, cell viability 72 h (AZD6738) [nM] | IC50, cell viability 72 h (AZD4320) [nM] | IC50, cell viability 72 h [1] [nM] | IC50, cell viability 72 h (Etoposide) [nM] | IC50, cell viability 72 h (Venetoclax) [nM] | IC50, cell viability 72 h (AZD1390) [nM] | IC50, cell viability 72 h (Gemcitabine) [nM] | IC50, cell viability 72 h (AZD0156) [nM] | IC50, cell viability 72 h (AZD5991) [nM] | IC50, cell viability 72 h (Paclitaxel) [nM] | IC50, cell viability 72 h (AZD2811) [nM] | IC50, cell viability 72 h (AZD7648) [nM] | IC50, cell viability 72 h (5-Fluorouracil) [nM] | IC50, cell viability 72 h (Palbociclib) [nM] | IC50, cell viability 72 h (Carboplatin) [nM] |
| --- | --- | --- | --- | --- | --- | --- | --- | --- | --- | --- | --- | --- | --- | --- | --- | --- | --- | --- | --- | --- | --- | --- | --- | --- | --- | --- | --- | --- | --- | --- | --- | --- | --- | --- | --- |
| LOUCY (T-Lymphoblastic Leukemia) | > 10000 | 4000 | 6.97 | > 1000 | 597 | 172 | > 1000 | > 10000 | 257 | 385 | 2720 | > 10000 | 1230 | 3530 | > 10000 | > 10000 | > 1000 | > 2000 | > 1 | 2450 | 1310 | 3.75 | > 5000 | 5000 | 31.7 | > 300 | > 300 | > 3000 | > 1000 | 13.5 | 8.15 | 7430 | > 20000 | > 10000 | > 10000 |
| NCI-H810 (Non-Small Cell Lung Carcinoma) | > 10000 | > 10000 | 52.8 | 880 | 1380 | 202 | > 1000 | > 10000 | 437 | 442 | > 10000 | > 10000 | > 10000 | > 10000 | > 10000 | > 10000 | > 1000 | > 2000 | > 1 | > 10000 | > 10000 | > 1000 | > 5000 | > 10000 | > 1000 | > 300 | > 300 | > 3000 | > 1000 | 282 | 330 | > 10000 | > 20000 | > 10000 | > 10000 |
| NCI-H1755 (Lung Adenocarcinoma) | > 10000 | 3970 | 10.8 | > 1000 | 3910 | > 300 | 444 | > 10000 | 363 | > 1000 | 2300 | > 10000 | > 10000 | 2410 | > 10000 | > 10000 | > 1000 | 211 | > 1 | > 10000 | 2080 | > 1000 | 1950 | > 10000 | > 1000 | > 300 | > 300 | > 3000 | > 1000 | 58.2 | > 1000 | > 10000 | > 20000 | 9000 | > 10000 |
| NKM-1 (Acute Myeloid Leukemia) | 4420 | 2030 | 15 | 24.1 | 177 | 2.01 | 83.3 | 1270 | 455 | 59.4 | 2370 | 2700 | 855 | 201 | > 10000 | > 10000 | > 1000 | 147 | > 1 | 8120 | 1860 | 7.73 | 2000 | 496 | 102 | > 300 | 5.13 | > 3000 | 49.3 | 3.66 | 502 | > 10000 | 3190 | 1250 | > 10000 |
| OV-90 (Ovarian Carcinoma) | > 10000 | > 10000 | 523 | > 1000 | > 10000 | 265 | 83.7 | > 10000 | > 3000 | > 1000 | > 10000 | 7810 | > 10000 | > 10000 | > 10000 | > 10000 | > 1000 | > 2000 | > 1 | > 10000 | > 10000 | > 1000 | 1880 | > 10000 | > 1000 | > 300 | > 300 | > 3000 | > 1000 | > 3000 | > 1000 | > 10000 | > 20000 | > 10000 | > 10000 |
